Reference: patent US5554357A, “Magnetic resonance imaging agents containing hydrazide moieties” (Mallinckrodt Medical, Inc., priority 1994, dated 1996)

Key:
[1] = test system: ICR mice; experiment: acute intravenous toxicity; assay type: in vivo, mouse (ICR); settings: single intravenous injection via lateral tail vein, males and females, 7 days observation, 95% Confidence Limits 6.8-19.6 mmol/kg
Protocol: The acute intravenous toxicity of the compound of Example 1 was determined as follows: ICR mice, at 1 to 4 per dose level, received single intravenous injections of the test substance via a lateral tail vein at the rate of approximately 1 ml/minute. The test substances were at concentrations chosen to result in dose volumes of 5 to 75 ml/kg body weight. Dosing began at a volume of 10 ml/kg. Dose adjustments up or down were made to closely bracket the estimated LD50 with 4 animals per group (2 males and 2 females). Observations of the mice were recorded at times 0, 0.5, 1, 2, 4 and 24 hours and once daily thereafter for up to 7 days post injection. On the 7th day post injection, the mice were euthanized, weighed and necropsied. Abnormal tissues were noted. At this time a decision was made as to whether any histopathology was to be performed and whether or not the tissues should be retained. Necropsies were also performed on mice expiring after 24 hours post-injection, except for dead mice found on the weekends. The LD50 values, along with 95% CI were calculated using a modified Behrens-Reed-Meunch method.

[2] = T1 relaxivity by spin-echo NMR; assay type: physicochemical; settings: 90 MHz, H2O/D2O (4:1), six concentrations from 20 mM down; least-square fit of 1/T1 versus concentration, correlation coefficient 0.9994
Protocol: T1 relaxation times were measured using spin-echo sequence on the JEOL FX90Q (90 MHz) FT-NMR spectrometer/ Twenty millimolar solution of the complex in Example 1 was prepared in H2 O/D2 O (4:1) mixture and was serially diluted to lower concentrations ([…]) with H2 O/D2 O (4:1) mixture. T1 measurements were made at each of these 6 concentrations. The relaxivity (R1) was determined by applying least-square fit to the plot of 1/T1 versus concentration. The relaxivity of the complex in Example 1 was 4.85+0.06 mM^-1 sec^-1. The correlation coefficient for the least squares analysis was 0.9994.

CN(C)NC(=O)CN(CCN(CCN(CC(=O)[O-])CC(=O)NN(C)C)CC(=O)[O-])CC(=O)[O-].O.[Gd+3] [Example 1]
LD50 [1]: 11.5 mmol/kg | relaxivity (R1) [2]: 4.85 ± 0.06 mM⁻¹ s⁻¹
